Test results from patent publication US4677100A, “Cephalosporin derivatives” (Banyu Pharmaceutical Co., Ltd., priority 1984, dated 1987).
≈ marks a conversion by molar mass, not a printed value.

Columns and labels:
P. aeruginosa AK109 = assay: MIC, agar plate dilution method; assay type: cell-based, Pseudomonas aeruginosa; conditions: for MIC: Pseudomonas aeruginosa, P. aeruginosa AK109, 10^6 CFU/ml, Sensitivity Disk Agar, read-out: Minimum Inhibitory Concentration; for antibacterial activity relative to the compound of Reference Example: Pseudomonas aeruginosa AK109
Procedure: (§1) The minimum inhibitory concentrations (MIC: μg/ml) of the compounds of the present invention against various microorganisms were measured by an agar plate dilution method (inoculum size: 10^6 CFU/ml) by using Sensitivity Disk Agar (Nissui) in comparison with Cefotaxime and Ceftazidime as comparative compounds.

P. aeruginosa AKR17 = assay: MIC, agar plate dilution method; assay type: cell-based, Pseudomonas aeruginosa; conditions: for MIC: Pseudomonas aeruginosa, P. aeruginosa AKR17, 10^6 CFU/ml, Sensitivity Disk Agar, read-out: Minimum Inhibitory Concentration; for antibacterial activity relative to the compound of Reference Example: Pseudomonas aeruginosa AKR-17, resistant to all cephalosporins including Ceftazidime
Procedure: as §1

E. cloaceae Nek 39 = assay: MIC, agar plate dilution method; assay type: cell-based; conditions: E. cloaceae Nek 39; 10^6 CFU/ml; Sensitivity Disk Agar; read-out: Minimum Inhibitory Concentration
Procedure: as §1

K. pneumoniae No. 42 = assay: MIC, agar plate dilution method; assay type: cell-based; conditions: Klebsiella pneumoniae; K. pneumoniae No. 42; 10^6 CFU/ml; Sensitivity Disk Agar; read-out: Minimum Inhibitory Concentration
Procedure: as §1

P. vulgaris No. 33 = assay: MIC, agar plate dilution method; assay type: cell-based; conditions: Proteus vulgaris; P. vulgaris No. 33; 10^6 CFU/ml; Sensitivity Disk Agar; read-out: Minimum Inhibitory Concentration
Procedure: as §1

A. calcoaceticus No. 14 = assay: MIC, agar plate dilution method; assay type: cell-based; conditions: Acinetobacter calcoaceticus; for MIC: A. calcoaceticus No. 14, 10^6 CFU/ml, Sensitivity Disk Agar, read-out: Minimum Inhibitory Concentration
Procedure: as §1

S. aureus NIHJJC-1 = assay: MIC, agar plate dilution method; assay type: cell-based; conditions: Staphylococcus aureus, NIHJJC1; S. aureus NIHJJC-1; 10^6 CFU/ml; Sensitivity Disk Agar; read-out: Minimum Inhibitory Concentration
Procedure: as §1

E. coli CSH = assay: MIC, agar plate dilution method; assay type: cell-based; conditions: Escherichia coli, read-out: Minimum Inhibitory Concentration
Procedure: as §1

E. coli NIHJJC-2 = assay: MIC, agar plate dilution method; assay type: cell-based; conditions: Escherichia coli, NIHJJC2; E. coli NIHJJC-2; 10^6 CFU/ml; Sensitivity Disk Agar; read-out: Minimum Inhibitory Concentration
Procedure: as §1

S. marcescens No. 16-2 = assay: MIC, agar plate dilution method; assay type: cell-based; conditions: Serratia marcescens, NO.162; S. marcescens No. 16-2; 10^6 CFU/ml; Sensitivity Disk Agar; read-out: Minimum Inhibitory Concentration
Procedure: as §1

E. coli ML1410/Rte16 = assay: MIC, agar plate dilution method; assay type: cell-based; conditions: Escherichia coli, ML1410/RTE16, read-out: Minimum Inhibitory Concentration
Procedure: as §1

E. coli W3630/Rms213 = assay: MIC, agar plate dilution method; assay type: cell-based; conditions: Escherichia coli, W3630/RMS213, read-out: Minimum Inhibitory Concentration
Procedure: as §1

E. coli C/Rms149 = assay: MIC, agar plate dilution method; assay type: cell-based; conditions: Escherichia coli, read-out: Minimum Inhibitory Concentration
Procedure: as §1

S. aureus JS-1 = assay: MIC, agar plate dilution method; assay type: cell-based; conditions: Staphylococcus aureus, JS1; S. aureus JS-1; 10^6 CFU/ml; Sensitivity Disk Agar; read-out: Minimum Inhibitory Concentration
Procedure: as §1

E. coli W3630/Rms212 = assay: MIC, agar plate dilution method; assay type: cell-based; conditions: Escherichia coli, W3630/RMS212, read-out: Minimum Inhibitory Concentration
Procedure: as §1

E. coli CSH2 = assay: MIC, agar plate dilution method; assay type: cell-based; conditions: Escherichia coli, 10^6 CFU/ml, Sensitivity Disk Agar, read-out: Minimum Inhibitory Concentration
Procedure: as §1

P. mirabilis JY10 = assay: MIC, agar plate dilution method; assay type: cell-based; conditions: Proteus mirabilis; P. mirabilis JY10; 10^6 CFU/ml; Sensitivity Disk Agar; read-out: Minimum Inhibitory Concentration
Procedure: as §1

C. freundii No. 7 = assay: MIC, agar plate dilution method; assay type: cell-based; conditions: Citrobacter freundii; C. freundii No. 7; 10^6 CFU/ml; Sensitivity Disk Agar; read-out: Minimum Inhibitory Concentration
Procedure: as §1

P. vulgaris OB1043 = assay: MIC, agar plate dilution method; assay type: cell-based; conditions: Proteus vulgaris; P. vulgaris OB1043; 10^6 CFU/ml; Sensitivity Disk Agar; read-out: Minimum Inhibitory Concentration
Procedure: as §1

P. maltophilia IID 1275 = assay: MIC, agar plate dilution method; assay type: cell-based, Pseudomonas maltophilia; conditions: for MIC: Stenotrophomonas maltophilia, IID1275, P. maltophilia IID 1275, 10^6 CFU/ml, Sensitivity Disk Agar, read-out: Minimum Inhibitory Concentration
Procedure: as §1

P. cepacia 23 = assay: MIC, agar plate dilution method; assay type: cell-based, Pseudomonas cepacia; conditions: for MIC: Burkholderia cepacia, P. cepacia 23, 10^6 CFU/ml, Sensitivity Disk Agar, read-out: Minimum Inhibitory Concentration; for antibacterial activity relative to the compound of Reference Example: Pseudomonas cepacia 23
Procedure: as §1

[1] = system: Gram-positive bacteria and Gram-negative bacteria; assay: antibacterial activity, general statement; assay type: cell-based; conditions: sensitive and resistant bacteria
Procedure: as §1

Row | Compound | MIC (P. aeruginosa AK109) [µg/mL] | MIC (P. aeruginosa AKR17) [µg/mL] | MIC (E. cloaceae Nek 39) [µg/mL] | MIC (K. pneumoniae No. 42) [µg/mL] | MIC (P. vulgaris No. 33) [µg/mL] | MIC (A. calcoaceticus No. 14) [µg/mL] | MIC (S. aureus NIHJJC-1) [µg/mL] | MIC (E. coli CSH) [µg/mL] | MIC (E. coli NIHJJC-2) [µg/mL] | MIC (S. marcescens No. 16-2) [µg/mL] | MIC (E. coli ML1410/Rte16) [µg/mL] | MIC (E. coli W3630/Rms213) [µg/mL] | MIC (E. coli C/Rms149) [µg/mL] | MIC (S. aureus JS-1) [µg/mL] | MIC (E. coli W3630/Rms212) [µg/mL] | MIC (E. coli CSH2) [µg/mL] | MIC (P. mirabilis JY10) [µg/mL] | MIC (C. freundii No. 7) [µg/mL] | MIC (P. vulgaris OB1043) [µg/mL] | MIC (P. maltophilia IID 1275) [µg/mL] | other results
1 | CO/N=C(\C(=O)NC1C(=O)N2C(C(=O)[O-])=C(C[N+]3(C)Cc4ccc(OC(C)=O)cc4C3)CSC12)c1csc(N)n1 (stereo not shown) [Ex. 1-F] | 3.12 (≈ 5.32 µM) | > 25 | 0.78 (≈ 1.33 µM) | 0.2 (≈ 0.341 µM) | 0.1 (≈ 0.17 µM) | 25 (≈ 42.6 µM) | 0.39 (≈ 0.665 µM) | 0.78 (≈ 1.33 µM) | ≤ 0.05 | 12.5 (≈ 21.3 µM) | 0.1 (≈ 0.17 µM) | 0.78 (≈ 1.33 µM) | 0.1 (≈ 0.17 µM) | 6.25 (≈ 10.7 µM) | 0.2 (≈ 0.341 µM) | ≤ 0.05 | 0.39 (≈ 0.665 µM) | 1.56 (≈ 2.66 µM) | 0.78 (≈ 1.33 µM) | > 25 | MIC (P. cepacia 23): 6.25 µg/mL (≈ 10.7 µM)
2 | CO/N=C(\C(=O)NC1C(=O)N2C(C(=O)[O-])=C(C[N+]3(C)Cc4ccc(O)cc4C3)CSC12)c1csc(N)n1 (stereo not shown) [Ex. 2-D, 7-[(Z)-2-(2-aminothiazol-4-yl)-2-methoxyiminoacetamido]-3-(5-hydroxy-2-methyl-2-isoindolinium)methyl-3-cephem-4-carboxylate] | 3.12 (≈ 5.73 µM) | > 25 | 0.78 (≈ 1.43 µM) | 0.2 (≈ 0.367 µM) | 0.1 (≈ 0.184 µM) | 25 (≈ 45.9 µM) | 0.39 (≈ 0.716 µM) | 0.39 (≈ 0.716 µM) | ≤ 0.05 | 6.25 (≈ 11.5 µM) | 0.1 (≈ 0.184 µM) | 0.78 (≈ 1.43 µM) | 0.1 (≈ 0.184 µM) | 6.25 (≈ 11.5 µM) | 0.2 (≈ 0.367 µM) | ≤ 0.05 | 0.39 (≈ 0.716 µM) | 1.56 (≈ 2.86 µM) | 0.39 (≈ 0.716 µM) | > 25 | MIC (P. cepacia 23): 6.25 µg/mL (≈ 11.5 µM)
3 | CO/N=C(\C(=O)NC1C(=O)N2C(C(=O)[O-])=C(C[N+]3(C)Cc4cc(OC(C)=O)c(OC(C)=O)cc4C3)CSC12)c1csc(N)n1 (stereo not shown) [Ex. 3-D] | 0.2 (≈ 0.31 µM) | 0.78 (≈ 1.21 µM) | ≤ 0.05 | 0.2 (≈ 0.31 µM) | 0.2 (≈ 0.31 µM) | 0.2 (≈ 0.31 µM) | 6.25 (≈ 9.69 µM) | 1.56 (≈ 2.42 µM) | ≤ 0.05 | 6.25 (≈ 9.69 µM) | 0.1 (≈ 0.155 µM) | 0.78 (≈ 1.21 µM) | 0.1 (≈ 0.155 µM) | 25 (≈ 38.8 µM) | ≤ 0.05 | 0.2 (≈ 0.31 µM) | 0.39 (≈ 0.605 µM) | 6.25 (≈ 9.69 µM) | 3.12 (≈ 4.84 µM) | 25 (≈ 38.8 µM) | antibacterial activity relative to the compound of Reference Example (P. aeruginosa AK109): at least 16 times; antibacterial activity relative to the compound of Reference Example (P. aeruginosa AKR17): at least 32 times; antibacterial activity (in words) [1]: particularly strong antibacterial activities; antibacterial activity relative to the compound of Reference Example (A. calcoaceticus No. 14): at least 32 times; MIC (P. cepacia 23): 0.39 µg/mL (≈ 0.605 µM); antibacterial activity relative to the compound of Reference Example (P. cepacia 23): at least 32 times
4 | C[N+]1(CC2=C(C(=O)[O-])N3C(=O)C(NC(=O)C(=NOC4(C(=O)O)CCC4)c4csc(N)n4)C3SC2)Cc2cc(O)c(O)cc2C1 (stereo not shown) [Ex. 11-F, 7-[(Z)-2-(2-aminothiazol-4-yl)-2-(1-carboxy-1-cyclobutoxyimino)acetamido]-3-(5,6-dihydroxy-2-methyl-2-isoindolinium)methyl-3-cephem-4-carboxylate] | ≤ 0.05 | 0.1 (≈ 0.155 µM) | ≤ 0.05 | ≤ 0.05 | ≤ 0.05 | 0.1 (≈ 0.155 µM) | 25 (≈ 38.8 µM) | ≤ 0.05 | ≤ 0.05 | 0.2 (≈ 0.31 µM) | ≤ 0.05 | ≤ 0.05 | ≤ 0.05 | > 25 | ≤ 0.05 | ≤ 0.05 | ≤ 0.05 | 0.78 (≈ 1.21 µM) | ≤ 0.05 | 1.56 (≈ 2.42 µM) | antibacterial activity relative to the compound of Reference Example (P. aeruginosa AK109): at least 16 times; antibacterial activity relative to the compound of Reference Example (P. aeruginosa AKR17): at least 32 times; antibacterial activity relative to the compound of Reference Example (A. calcoaceticus No. 14): at least 32 times; antibacterial activity relative to the compound of Reference Example (P. maltophilia IID 1275; Pseudomonas maltophilia resistant to all cephalosporins): at least twice as strong; MIC (P. cepacia 23): ≤ 0.05 µg/mL; antibacterial activity relative to the compound of Reference Example (P. cepacia 23): at least 32 times
5 | CO/N=C(\C(=O)NC1C(=O)N2C(C(=O)[O-])=C(C[N+]3(C)Cc4ccccc4C3)CSC12)c1csc(N)n1 (stereo not shown) [Reference Ex., 7-[(Z)-2-(2-aminothiazol-4-yl)-2-methoxyiminoacetamido]-3-(2-methyl-2-isoindolinium)methyl-3-cephem-4-carboxylate, reference compound] | 3.12 (≈ 5.9 µM) | > 25 | 0.78 (≈ 1.48 µM) | 0.2 (≈ 0.378 µM) | 0.2 (≈ 0.378 µM) | 25 (≈ 47.3 µM) | 0.39 (≈ 0.738 µM) | 0.39 (≈ 0.738 µM) | ≤ 0.05 | 12.5 (≈ 23.6 µM) | 0.05 (≈ 0.0946 µM) | 0.78 (≈ 1.48 µM) | 0.1 (≈ 0.189 µM) | 3.12 (≈ 5.9 µM) | 0.2 (≈ 0.378 µM) | ≤ 0.05 | 0.39 (≈ 0.738 µM) | 1.56 (≈ 2.95 µM) | 0.78 (≈ 1.48 µM) | > 25 | MIC (P. cepacia 23): 12.5 µg/mL (≈ 23.6 µM)
